{"source": "ChEMBL document CHEMBL1201862", "about": "“PubChem BioAssay data set” (2004)", "test_in_all_cases": "NCI-60 cell line screen, 48 h", "key": {"[1]": {"system": "U-251"}, "[2]": {"system": "Malme-3M"}, "[3]": {"system": "M14"}, "[4]": {"system": "HT-29"}, "[5]": {"system": "OVCAR-4"}, "[6]": {"system": "MOLT-4"}, "[7]": {"system": "COLO 205"}, "[8]": {"system": "PC-3"}, "[9]": {"system": "CCRF-CEM"}, "[10]": {"system": "SK-MEL-28"}, "[11]": {"system": "HOP-62"}, "[12]": {"system": "IGROV-1"}, "[13]": {"system": "NCI-H23"}, "[14]": {"system": "NCI/ADR-RES"}, "[15]": {"system": "SN12C"}, "[16]": {"system": "MDA-MB-435"}, "[17]": {"system": "SW-620"}, "[18]": {"system": "MDA-N"}, "[19]": {"system": "MDA-MB-231"}, "[20]": {"system": "HCT-15"}, "[21]": {"system": "LOX IMVI"}, "[22]": {"system": "MCF7"}, "[23]": {"system": "UO-31"}, "[24]": {"system": "NCI-H226"}, "[25]": {"system": "Hs-578T"}, "[26]": {"system": "786-0"}, "[27]": {"system": "UACC-62"}, "[28]": {"system": "A549"}, "[29]": {"system": "SF-268"}, "[30]": {"system": "TK-10"}, "[31]": {"system": "SK-MEL-2"}, "[32]": {"system": "SK-MEL-5"}, "[33]": {"system": "OVCAR-3"}, "[34]": {"system": "OVCAR-8"}, "[35]": {"system": "HCT-116"}, "[36]": {"system": "OVCAR-5"}, "[37]": {"system": "SK-OV-3"}, "[38]": {"system": "HOP-92"}, "[39]": {"system": "A498"}, "[40]": {"system": "SNB-75"}, "[41]": {"system": "ACHN"}, "[42]": {"system": "UACC-257"}, "[43]": {"system": "SNB-19"}, "[44]": {"system": "EKVX"}, "[45]": {"system": "KM12"}, "[46]": {"system": "DU-145"}, "[47]": {"system": "SF-295"}, "[48]": {"system": "RPMI-8226"}, "[49]": {"system": "K562"}, "[50]": {"system": "SR"}, "[51]": {"system": "NCI-H522"}, "[52]": {"system": "CAKI-1"}, "[53]": {"system": "RXF 393"}, "[54]": {"system": "NCI-H460"}, "[55]": {"system": "BT-549"}, "[56]": {"system": "HL-60"}, "[57]": {"system": "SF-539"}, "[58]": {"system": "T47D"}}, "note": "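How tested: cells in 96-well plates exposed to compound for 48 hours at five concentrations. At the GI50, growth is halved.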 The source made the active and inactive calls. No stated cut-off is given here; in the data, active = GI50 up to about 1.1 µM and inactive = higher.", "data": [{"smiles": "O=C1/C(=C/c2ccc(Cl)cc2)NC(=S)N1CN1CCOCC1", "values": [{"measurement": "GI50", "setting": "[1]", "value": "> 100 µM (inactive)"}, {"measurement": "GI50", "setting": "[2]", "value": "> 100 µM (inactive)"}, {"measurement": "GI50", "setting": "[3]", "value": "> 100 µM (inactive)"}, {"measurement": "GI50", "setting": "[4]", "value": "> 100 µM (inactive)"}, {"measurement": "GI50", "setting": "[5]", "value": "> 100 µM (inactive)"}, {"measurement": "GI50", "setting": "[6]", "value": "> 100 µM (inactive)"}, {"measurement": "GI50", "setting": "[7]", "value": "> 100 µM (inactive)"}, {"measurement": "GI50", "setting": "[8]", "value": "> 100 µM (inactive)"}, {"measurement": "GI50", "setting": "[9]", "value": "74 µM (inactive)"}, {"measurement": "GI50", "setting": "[10]", "value": "> 100 µM (inactive)"}, {"measurement": "GI50", "setting": "[11]", "value": "> 100 µM (inactive)"}, {"measurement": "GI50", "setting": "[12]", "value": "> 100 µM (inactive)"}, {"measurement": "GI50", "setting": "[13]", "value": "> 100 µM (inactive)"}, {"measurement": "GI50", "setting": "[14]", "value": "> 100 µM (inactive)"}, {"measurement": "GI50", "setting": "[15]", "value": "> 100 µM (inactive)"}, {"measurement": "GI50", "setting": "[16]", "value": "> 100 µM (inactive)"}, {"measurement": "GI50", "setting": "[17]", "value": "> 100 µM (inactive)"}, {"measurement": "GI50", "setting": "[18]", "value": "> 100 µM (inactive)"}, {"measurement": "GI50", "setting": "[19]", "value": "> 100 µM (inactive)"}, {"measurement": "GI50", "setting": "[20]", "value": "> 100", "unit": "µM"}, {"measurement": "GI50", "setting": "[21]", "value": "> 100 µM (inactive)"}, {"measurement": "GI50", "setting": "[22]", "value": "> 100 µM (inactive)"}, {"measurement": "GI50", "setting": "[23]", "value": "> 100 µM (inactive)"}, {"measurement": "GI50", "setting": "[24]", "value": "> 100 µM (inactive)"}, {"measurement": "GI50", "setting": "[25]", "value": "> 100 µM (inactive)"}, {"measurement": "GI50", "setting": "[26]", "value": "> 100 µM (inactive)"}, {"measurement": "GI50", "setting": "[27]", "value": "> 100 µM (inactive)"}, {"measurement": "GI50", "setting": "[28]", "value": "> 100 µM (inactive)"}, {"measurement": "GI50", "setting": "[29]", "value": "> 100 µM (inactive)"}, {"measurement": "GI50", "setting": "[30]", "value": "> 100 µM (inactive)"}, {"measurement": "GI50", "setting": "[31]", "value": "> 100 µM (inactive)"}, {"measurement": "GI50", "setting": "[32]", "value": "> 100 µM (inactive)"}, {"measurement": "GI50", "setting": "[33]", "value": "> 100 µM (inactive)"}, {"measurement": "GI50", "setting": "[34]", "value": "> 100 µM (inactive)"}, {"measurement": "GI50", "setting": "[35]", "value": "> 100 µM (inactive)"}, {"measurement": "GI50", "setting": "[36]", "value": "> 100 µM (inactive)"}, {"measurement": "GI50", "setting": "[37]", "value": "> 100 µM (inactive)"}, {"measurement": "GI50", "setting": "[38]", "value": "> 100 µM (inactive)"}, {"measurement": "GI50", "setting": "[39]", "value": "57.3 µM (inactive)"}, {"measurement": "GI50", "setting": "[40]", "value": "> 100 µM (inactive)"}, {"measurement": "GI50", "setting": "[41]", "value": "> 100 µM (inactive)"}, {"measurement": "GI50", "setting": "[42]", "value": "> 100 µM (inactive)"}, {"measurement": "GI50", "setting": "[43]", "value": "> 100 µM (inactive)"}, {"measurement": "GI50", "setting": "[44]", "value": "> 100 µM (inactive)"}, {"measurement": "GI50", "setting": "[45]", "value": "> 100 µM (inactive)"}, {"measurement": "GI50", "setting": "[46]", "value": "> 100 µM (inactive)"}, {"measurement": "GI50", "setting": "[47]", "value": "> 100 µM (inactive)"}, {"measurement": "GI50", "setting": "[48]", "value": "> 100 µM (inactive)"}, {"measurement": "GI50", "setting": "[49]", "value": "> 100 µM (inactive)"}]}, {"smiles": "Cc1c(N2C(=O)/C(=C/c3ccc(Cl)cc3)N=C2c2ccccc2)c(=O)n(-c2ccccc2)n1C", "values": [{"measurement": "GI50", "setting": "[1]", "value": "28.2 µM (inactive)"}, {"measurement": "GI50", "setting": "[2]", "value": "31.5 µM (inactive)"}, {"measurement": "GI50", "setting": "[3]", "value": "36.8 µM (inactive)"}, {"measurement": "GI50", "setting": "[4]", "value": "26.6 µM (inactive)"}, {"measurement": "GI50", "setting": "[50]", "value": "30.5 µM (inactive)"}, {"measurement": "GI50", "setting": "[5]", "value": "33.9 µM (inactive)"}, {"measurement": "GI50", "setting": "[6]", "value": "21.2 µM (inactive)"}, {"measurement": "GI50", "setting": "[7]", "value": "16 µM (inactive)"}, {"measurement": "GI50", "setting": "[8]", "value": "33.9 µM (inactive)"}, {"measurement": "GI50", "setting": "[9]", "value": "28.3 µM (inactive)"}, {"measurement": "GI50", "setting": "[11]", "value": "81.5 µM (inactive)"}, {"measurement": "GI50", "setting": "[12]", "value": "29 µM (inactive)"}, {"measurement": "GI50", "setting": "[13]", "value": "26.2 µM (inactive)"}, {"measurement": "GI50", "setting": "[14]", "value": "44.5 µM (inactive)"}, {"measurement": "GI50", "setting": "[15]", "value": "34.1 µM (inactive)"}, {"measurement": "GI50", "setting": "[51]", "value": "19.8 µM (inactive)"}, {"measurement": "GI50", "setting": "[16]", "value": "19.5 µM (inactive)"}, {"measurement": "GI50", "setting": "[17]", "value": "31.9 µM (inactive)"}, {"measurement": "GI50", "setting": "[18]", "value": "24.8 µM (inactive)"}, {"measurement": "GI50", "setting": "[19]", "value": "33.8 µM (inactive)"}, {"measurement": "GI50", "setting": "[20]", "value": 3.2, "unit": "µM"}, {"measurement": "GI50", "setting": "[21]", "value": "16.7 µM (inactive)"}, {"measurement": "GI50", "setting": "[52]", "value": "34.6 µM (inactive)"}, {"measurement": "GI50", "setting": "[22]", "value": "29 µM (inactive)"}, {"measurement": "GI50", "setting": "[23]", "value": "26.2 µM (inactive)"}, {"measurement": "GI50", "setting": "[24]", "value": "30.7 µM (inactive)"}, {"measurement": "GI50", "setting": "[26]", "value": "46.8 µM (inactive)"}, {"measurement": "GI50", "setting": "[27]", "value": "21.1 µM (inactive)"}, {"measurement": "GI50", "setting": "[28]", "value": "28.8 µM (inactive)"}, {"measurement": "GI50", "setting": "[29]", "value": "30.8 µM (inactive)"}, {"measurement": "GI50", "setting": "[30]", "value": "20.5 µM (inactive)"}, {"measurement": "GI50", "setting": "[31]", "value": "16.7 µM (inactive)"}, {"measurement": "GI50", "setting": "[32]", "value": "17.8 µM (inactive)"}, {"measurement": "GI50", "setting": "[33]", "value": "27.1 µM (inactive)"}, {"measurement": "GI50", "setting": "[34]", "value": "43.7 µM (inactive)"}, {"measurement": "GI50", "setting": "[53]", "value": "22.3 µM (inactive)"}, {"measurement": "GI50", "setting": "[35]", "value": "32.3 µM (inactive)"}, {"measurement": "GI50", "setting": "[54]", "value": "31 µM (inactive)"}, {"measurement": "GI50", "setting": "[36]", "value": "49.2 µM (inactive)"}, {"measurement": "GI50", "setting": "[37]", "value": "36.5 µM (inactive)"}, {"measurement": "GI50", "setting": "[55]", "value": "47.4 µM (inactive)"}, {"measurement": "GI50", "setting": "[38]", "value": "18.7 µM (inactive)"}, {"measurement": "GI50", "setting": "[56]", "value": "27.4 µM (inactive)"}, {"measurement": "GI50", "setting": "[40]", "value": "22.5 µM (inactive)"}, {"measurement": "GI50", "setting": "[41]", "value": "24.8 µM (inactive)"}, {"measurement": "GI50", "setting": "[42]", "value": "18.3 µM (inactive)"}, {"measurement": "GI50", "setting": "[44]", "value": "19.7 µM (inactive)"}, {"measurement": "GI50", "setting": "[45]", "value": "26.5 µM (inactive)"}, {"measurement": "GI50", "setting": "[46]", "value": "38.2 µM (inactive)"}, {"measurement": "GI50", "setting": "[47]", "value": "35.7 µM (inactive)"}, {"measurement": "GI50", "setting": "[48]", "value": "17.8 µM (inactive)"}, {"measurement": "GI50", "setting": "[57]", "value": "28.5 µM (inactive)"}, {"measurement": "GI50", "setting": "[49]", "value": "36.6 µM (inactive)"}, {"measurement": "GI50", "setting": "[58]", "value": "29.6 µM (inactive)"}]}]}
